Assays:
FLAG-tagged PRMT6 = target: T1, FLAG-tagged PRMT6 (Homo sapiens, UniProt Q96LA8); assay: Fluorescence-based in vitro PRMT assay (F-PRMT assay), PRMT6; format: biochemical; conditions: for Experimental result (PRMT6): vs solvent control = 100%
T1 construct: The complete ORFs of human PRMT3 and PRMT6 were inserted; made in house; host or cells: Sf9 insect cells (baculovirus)
Method in brief: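 Baculovirus/Sf9-expressed FLAG-PRMTs (human PRMT3, PRMT6; mouse PRMT4), anti-FLAG purified and used bead-bound, methylated Bz-Arg-AMC with SAM for 2 h at 37 °C, 1,000 rpm. Technical triplicates; no-SAM negative controls.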

PANC-1 cells = assay: CaspaseGlo 3/7 apoptosis assay, PANC-1; format: cell-based, human; conditions: 72 h
Method: 6 Effect of small-molecule modulators on gemcitabine-induced apoptosis and tumor growth of PDAC cells. […] After 2 h, gemcitabine (GEM) was added at increasing concentrations (10 and 25 nM) or not (−) for another incubation of 72 h. Subsequently, the luminescence-based caspase3/7 assay was performed. The activity of caspase 3/7 in treated cells was normalized to the activity measured in untreated cells (dark gray bar), which was set to 1 (mean SD, n = 6 for PANC-1 and n = 4 for PaTu8988T; *: p ≤ 0.05, **: p ≤ 0.01, ***: p ≤ 0.001, using the student t-test). […] After 24 h, gemcitabine (GEM, 1 μM) was added (+) or not (−) for another incubation of 48 h. Subsequently, the apoptotic cell fraction was quantified in % by flow cytometry using FITC-labeled Annexin V (AV) and propidium iodide (PI) staining (in B: mean ± SD, n = 6 for PANC-1 and n = 5 for PaTu8988T; **: p ≤ 0.01, ***: p ≤ 0.001, ****: p ≤ 0.0001, using the student t-test). […] Viable cells are AV/PI double-negative (AV–/PI–, lower left quadrant, Q4), early apoptotic cells are AV single-positive (AV+/PI– upper left quadrant, Q1), late apoptotic cells are AV/PI double-positive (AV+/PI+, upper right quadrant, Q2), and necrotic cells are PI single-positive (AV–/PI+, lower right quadrant, Q3). The sum of early and late apoptotic cell numbers ([…] in %) is indicated in red. D-G: The workflow of the PDAC xenograft experiments in mice is depicted in D. PANC-1 cells (2 × 10^6 cells/mouse) were subcutaneously (s.c.) injected in the right flank of female athymic nude mice. Small tumor nodules appeared 6 days post-engraftment. […] Tumor volumes were measured every second day using a digital caliper. […] At the end of the 2 weeks, mice were sacrificed and tumors were dissected (F).
For quantification of apoptosis using the CaspaseGlo 3/7 assay (Promega), PANC-1 and PaTu8988T cells were seeded in triplicates in white 96-well plate (5 × 10^3 cells/well) and cultured in the absence or presence of compounds. After 2 h, as soon as the cells had settled, gemcitabine was added or not, and cells were incubated for another 72 h. Subsequently, the caspase3/7 activity was measured using the luminescence-based CaspaseGLO-3/7 assay (Promega). To this end, the CaspaseGlo reagent was subsequently added to the cells at a 1:1 ratio and incubated at room temperature and under agitation for 30 min protected from light. The luminescence measurements were carried out using a microplate reader (Mithras LB 940, Berthold).

PANC-1 xenografts = assay: PDAC xenograft mouse model, tumor growth; format: in vivo; conditions: female athymic nude mice, intraperitoneal, 2 weeks; 150 mg/kg TR-07 daily, 10 mg/kg gemcitabine every second day; n = 5

T1 sequence (Q96LA8 whole entry): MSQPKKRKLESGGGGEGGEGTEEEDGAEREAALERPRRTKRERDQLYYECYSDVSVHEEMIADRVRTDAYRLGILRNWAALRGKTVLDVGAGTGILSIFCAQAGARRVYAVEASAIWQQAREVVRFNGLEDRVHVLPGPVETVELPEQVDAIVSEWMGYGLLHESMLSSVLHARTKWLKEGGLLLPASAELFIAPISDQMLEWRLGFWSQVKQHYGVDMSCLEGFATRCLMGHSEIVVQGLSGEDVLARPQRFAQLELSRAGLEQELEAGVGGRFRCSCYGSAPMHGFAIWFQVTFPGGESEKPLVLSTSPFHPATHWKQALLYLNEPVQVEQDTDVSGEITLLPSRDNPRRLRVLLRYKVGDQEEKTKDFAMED

CN(C)Cc1cccc(CN/C=C2\C(=O)NC(=O)c3ccccc32)c1.Cl [TR-07, (Z)-1-[3-({[(1,3-Dioxo-2,3-dihydroisoquinolin-4(1H)-lidene)methyl]amino}methyl)phenyl]-N,N-dimethylmethanaminium chloride]
effect on PRMT6 activity (in words) (FLAG-tagged PRMT6; 100 μM compound): neither positively nor negatively influencing | Experimental result (PRMT6) (FLAG-tagged PRMT6; Table 1, 100 μM compound, 2 μM PRMT, n = 3, racemates used): PRMT6 n.e. (Compounds, which did not significantly affect the catalytic activity (less than ±6% change or not significant p-value), are marked with [drawing 8] (no effect)) | Experimental result (PRMT6) (FLAG-tagged PRMT6; Table S3, 100 µM compound, n≥3): n.e. (did not significantly affect the catalytic activity (less than ±6% change or not significant p-value), are marked with n.e. (no effect)) | apoptosis, caspase 3/7 activity, single agent (PANC-1 cells; TR-07 10 μM or gemcitabine 10 and 25 nM): did not significantly induce apoptosis | gemcitabine-induced apoptosis, caspase 3/7 activity, co-treatment (PANC-1 cells; compound 10 μM, after 2 h gemcitabine 10 and 25 nM): further significantly enhanced | tumor growth of PANC-1 xenografts (PANC-1 xenografts): significantly reduced the tumor growth compared to the control mice

Reference: PMC13576449, “Small-Molecule Activators of PRMT1: Discovery, SAR Analyses, and Proapoptotic Effects in Pancreatic Cancer Cells” (Journal of Medicinal Chemistry, 2026)
